Measured values reported in paper PMC6095594, “Pre-clinical evaluation of quinoxaline-derived chalcones in tuberculosis” (PLoS ONE, 2018).
pIC50: −log10 of the molar value. Converted amounts (≈) assume the structure as drawn. “And” between values parts separate entries of the source, which are not always exact repeats. Equal values may be shown once. Read-outs that look alike come from different tables or passages of the source.

How the values were obtained:
[1] = system: M. tuberculosis pNIP::KatG(WT); assay: microbe, parasite or virus in culture; type: cell-based; settings: Mycobacterium tuberculosis
S. typhimurium TA102 = assay: Salmonella/microsome mutagenicity test
Description: (§1) Salmonella typhimurium strains TA98, TA97a, TA100, TA1535, and TA102 were provided by MOLTOX® (Molecular Toxicology Inc. USA). Mutagenicity was assayed according to the pre-incubation procedure following the recommendation described in Mortelmans and Zieger (2000). […] Briefly, 100 μL of test bacterial cultures (1–2 x 10^9 cells/mL) were incubated at 37 °C with different concentrations of N9 (10–400 μg/plate) in the presence or absence of S9 mix, for 20 min, without shaking. […] 2-aminoanthracene (2-AA, 5 μg/plate) was used as positive control for all strains in the presence of metabolic activation (with S9 mix). […] Plates were incubated in the dark at 37 °C for 48 h before counting the revertant colonies. Assays were repeated twice and the plating for each concentration was conducted in triplicate. Data were evaluated by one-way analysis of variance (ANOVA), followed by Dunnett's post-test, using GraphPad Prism 5.0 (GraphPad, San Diego, CA, USA).

S. typhimurium TA98 = assay: Salmonella/microsome mutagenicity test
Description: as §1

S. typhimurium TA97a = assay: Salmonella/microsome mutagenicity test
Description: as §1

CYP2C9 = CYP2C9 (Homo sapiens, UniProt P11712); settings: human liver microsomes
[2] = system: M. tuberculosis H37Rv strain; assay: microbe, parasite or virus in culture; type: cell-based
CYP2D6 = CYP2D6 (Homo sapiens, UniProt P10635); settings: human liver microsomes, CYP2D6, N9 0.01–100 μmol L^-1
CYP2E1 = CYP2E1 (Homo sapiens, UniProt P05181); settings: human liver microsomes, CYP2E1, N9 0.01–100 μmol L^-1
[3] = system: mycolic acids synthesis in M. tuberculosis cells; type: cell-based; settings: N9 at 10 and 25 μg/mL, 18 hours
[4] = system: M. tuberculosis pNIP::control; assay: microbe, parasite or virus in culture; type: cell-based; settings: Mycobacterium tuberculosis; pNIP::control (empty vector)
CYP1A2 = CYP1A2 (Homo sapiens, UniProt P05177); assay: biochemical
CYP3A4/5 = assay: in vitro; settings: human, microsomes, pH 7.4
M. tuberculosis H37Rv = assay: Checkerboard assay, two-drug combination with REMA readout; type: cell-based, Mycobacterium tuberculosis; settings: for MIC Combined: checkerboard, three independent experiments
[5] = system: M. tuberculosis pan-susceptible clinical isolate CDCT-28; assay: microbe, parasite or virus in culture; type: cell-based; settings: Mycobacterium tuberculosis

Chain of CYP2C9 (P11712 whole entry): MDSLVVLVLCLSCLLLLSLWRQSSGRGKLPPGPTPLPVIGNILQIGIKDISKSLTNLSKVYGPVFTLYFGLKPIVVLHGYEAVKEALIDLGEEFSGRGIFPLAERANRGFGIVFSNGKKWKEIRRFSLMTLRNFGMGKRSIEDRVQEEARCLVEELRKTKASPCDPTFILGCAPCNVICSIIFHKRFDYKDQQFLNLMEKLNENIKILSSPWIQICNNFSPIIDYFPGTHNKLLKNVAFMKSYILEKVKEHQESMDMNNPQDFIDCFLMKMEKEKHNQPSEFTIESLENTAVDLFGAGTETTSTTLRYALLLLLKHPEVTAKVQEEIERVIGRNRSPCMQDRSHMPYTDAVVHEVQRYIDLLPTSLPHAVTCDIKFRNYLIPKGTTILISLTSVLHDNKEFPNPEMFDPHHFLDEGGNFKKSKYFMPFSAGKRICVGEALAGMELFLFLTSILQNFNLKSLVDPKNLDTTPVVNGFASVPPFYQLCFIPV
Chain of CYP2D6 (P10635 whole entry): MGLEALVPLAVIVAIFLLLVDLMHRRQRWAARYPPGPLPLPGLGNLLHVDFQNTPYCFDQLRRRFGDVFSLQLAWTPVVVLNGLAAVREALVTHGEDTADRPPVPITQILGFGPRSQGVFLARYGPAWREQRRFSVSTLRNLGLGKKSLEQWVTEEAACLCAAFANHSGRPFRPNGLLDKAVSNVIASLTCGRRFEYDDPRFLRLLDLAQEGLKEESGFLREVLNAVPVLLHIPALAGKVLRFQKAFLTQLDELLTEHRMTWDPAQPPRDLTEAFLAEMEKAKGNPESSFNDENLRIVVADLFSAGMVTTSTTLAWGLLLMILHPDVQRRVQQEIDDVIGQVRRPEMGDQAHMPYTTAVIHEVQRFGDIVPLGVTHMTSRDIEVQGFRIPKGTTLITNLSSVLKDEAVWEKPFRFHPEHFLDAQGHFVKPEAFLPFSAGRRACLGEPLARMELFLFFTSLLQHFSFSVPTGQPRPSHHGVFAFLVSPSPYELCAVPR
Chain of CYP2E1 (P05181 whole entry): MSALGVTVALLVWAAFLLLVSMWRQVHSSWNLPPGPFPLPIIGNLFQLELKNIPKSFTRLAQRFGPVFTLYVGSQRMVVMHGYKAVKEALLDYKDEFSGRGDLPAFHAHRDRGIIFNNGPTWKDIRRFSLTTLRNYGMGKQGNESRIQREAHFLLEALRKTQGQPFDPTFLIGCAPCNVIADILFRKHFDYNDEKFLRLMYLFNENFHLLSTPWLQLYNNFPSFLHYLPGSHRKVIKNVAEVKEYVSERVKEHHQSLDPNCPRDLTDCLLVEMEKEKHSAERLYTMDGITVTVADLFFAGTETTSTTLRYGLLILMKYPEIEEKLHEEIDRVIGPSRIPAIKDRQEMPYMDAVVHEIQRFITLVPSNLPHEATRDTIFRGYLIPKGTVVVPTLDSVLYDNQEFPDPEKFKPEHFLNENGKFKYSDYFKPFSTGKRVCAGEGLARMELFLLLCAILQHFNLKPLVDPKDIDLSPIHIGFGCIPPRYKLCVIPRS
Chain of CYP1A2 (P05177 whole entry): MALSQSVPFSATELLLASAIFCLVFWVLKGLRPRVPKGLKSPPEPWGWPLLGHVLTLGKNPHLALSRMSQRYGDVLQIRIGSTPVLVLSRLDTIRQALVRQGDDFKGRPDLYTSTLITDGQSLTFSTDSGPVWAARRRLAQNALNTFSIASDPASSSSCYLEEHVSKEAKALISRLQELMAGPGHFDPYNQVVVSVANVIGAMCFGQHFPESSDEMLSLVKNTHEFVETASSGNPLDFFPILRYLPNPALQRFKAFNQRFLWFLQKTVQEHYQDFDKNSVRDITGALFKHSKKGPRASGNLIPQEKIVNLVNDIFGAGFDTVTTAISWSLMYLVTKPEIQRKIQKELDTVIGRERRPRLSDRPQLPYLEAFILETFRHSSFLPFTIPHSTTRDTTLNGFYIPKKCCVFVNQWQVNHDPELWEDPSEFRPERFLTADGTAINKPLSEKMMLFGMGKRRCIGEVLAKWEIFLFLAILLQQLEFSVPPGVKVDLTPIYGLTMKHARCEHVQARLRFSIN

## COc1ccc(OC)c(C(=O)/C=C/c2ccc3nccnc3c2)c1 [N9]
[1]
  MIC: 3.13 µg/mL (≈ 9.77 µM)
S. typhimurium TA102; TA102, +S9, 10 μg/plate
  MI: mutagenic index: 1.01
  Number of revertants/plate: 376.3±29.0 Rev/plate
S. typhimurium TA102; TA102, +S9, 50 μg/plate
  MI: mutagenic index: 0.96
  Number of revertants/plate: 358.0±49.1 Rev/plate
S. typhimurium TA102; TA102, +S9, 100 μg/plate
  MI: mutagenic index: 0.99
  Number of revertants/plate: 368.7±12.7 Rev/plate
S. typhimurium TA102; TA102, +S9, 200 μg/plate
  MI: mutagenic index: 1.02
  Number of revertants/plate: 382.0±58.2 Rev/plate
S. typhimurium TA102; TA102, +S9, 400 μg/plate
  MI: mutagenic index: 0.99
  Number of revertants/plate: 371.0±23.6 Rev/plate
S. typhimurium TA102; TA102, -S9, 10 μg/plate
  MI: mutagenic index: 0.75
  Number of revertants/plate: 254.3±47.1 Rev/plate
S. typhimurium TA102; TA102, -S9, 50 μg/plate
  MI: mutagenic index: 0.89
  Number of revertants/plate: 299.3±50.6 Rev/plate
S. typhimurium TA102; TA102, -S9, 100 μg/plate
  MI: mutagenic index: 1.01
  Number of revertants/plate: 341.3±16.8 Rev/plate
S. typhimurium TA102; TA102, -S9, 200 μg/plate
  MI: mutagenic index: 0.96
  Number of revertants/plate: 324.3±4.2 Rev/plate
S. typhimurium TA102; TA102, -S9, 400 μg/plate
  MI: mutagenic index: 0.95
  Number of revertants/plate: 321.0±27.4 Rev/plate
S. typhimurium TA98; TA98, +S9, 10 μg/plate
  MI: mutagenic index: 1.09
  Number of revertants/plate: 43.7±4.7 Rev/plate
S. typhimurium TA98; TA98, +S9, 50 μg/plate
  MI: mutagenic index: 0.80
  Number of revertants/plate: 32.0±7.8 Rev/plate
S. typhimurium TA98; TA98, +S9, 100 μg/plate
  MI: mutagenic index: 0.94
  Number of revertants/plate: 37.7±5.7 Rev/plate
S. typhimurium TA98; TA98, +S9, 200 μg/plate
  MI: mutagenic index: 1.05
  Number of revertants/plate: 42.0±5.6 Rev/plate
S. typhimurium TA98; TA98, +S9, 400 μg/plate
  MI: mutagenic index: 1.06
  Number of revertants/plate: 42.3±6.7 Rev/plate
S. typhimurium TA98; TA98, -S9, 10 μg/plate
  MI: mutagenic index: 0.83
  Number of revertants/plate: 28.3±7.6 Rev/plate
S. typhimurium TA98; TA98, -S9, 50 μg/plate
  MI: mutagenic index: 0.73
  Number of revertants/plate: 25.0±6.1 Rev/plate
S. typhimurium TA98; TA98, -S9, 100 μg/plate
  MI: mutagenic index: 0.81
  Number of revertants/plate: 27.7±4.0 Rev/plate
S. typhimurium TA98; TA98, -S9, 200 μg/plate
  MI: mutagenic index: 0.89
  Number of revertants/plate: 30.5±2.1 Rev/plate
S. typhimurium TA98; TA98, -S9, 400 μg/plate
  MI: mutagenic index: 1.24
  Number of revertants/plate: 42.5±15.8 Rev/plate
S. typhimurium TA97a; +S9, 10 μg/plate
  MI: mutagenic index: 1.11
  Number of revertants/plate: 128.0±12.1 Rev/plate
S. typhimurium TA97a; +S9, 50 μg/plate
  MI: mutagenic index: 0.92
  Number of revertants/plate: 106.0±14.2 Rev/plate
S. typhimurium TA97a; +S9, 100 μg/plate
  MI: mutagenic index: 0.98
  Number of revertants/plate: 113.5±5.0 Rev/plate
S. typhimurium TA97a; +S9, 200 μg/plate
  MI: mutagenic index: 0.71
  Number of revertants/plate: 82.0±1.0 Rev/plate
S. typhimurium TA97a; +S9, 400 μg/plate
  MI: mutagenic index: 0.90
  Number of revertants/plate: 104.0±28.8 Rev/plate
S. typhimurium TA97a; -S9, 10 μg/plate
  MI: mutagenic index: 1.14
  Number of revertants/plate: 145.7±20.3 Rev/plate
S. typhimurium TA97a; -S9, 50 μg/plate
  MI: mutagenic index: 0.98
  Number of revertants/plate: 125.0±12.5 Rev/plate
S. typhimurium TA97a; -S9, 100 μg/plate
  MI: mutagenic index: 0.93
  Number of revertants/plate: 118.0±8.2 Rev/plate
S. typhimurium TA97a; -S9, 200 μg/plate
  MI: mutagenic index: 0.98
  Number of revertants/plate: 124.3±13.3 Rev/plate
S. typhimurium TA97a; -S9, 400 μg/plate
  MI: mutagenic index: 1.05
  Number of revertants/plate: 134.0±3.6 Rev/plate
CYP2C9
  Inhibitory potential: weak inhibitory potential
[2]; H37Rv
  MIC: 3.13 µg/mL (≈ 9.77 µM)
[2]; Mycobacterium tuberculosis, H37RV, read-out: MIC
  MIC: 3.13 to 12.5 µg/mL (≈ 9.77 to 39 µM)
[2]; Mycobacterium tuberculosis, read-out: MICs, M. tuberculosis H37Rv strain, and clinical isolates (summary)
  MIC: 1.56 to 3.13 µg/mL (≈ 4.87 to 9.79 µM)
CYP2D6
  percentage of remaining enzyme activity: approximately 100%
CYP2E1
  percentage of remaining enzyme activity: approximately 100%
[3]
  Effect on synthesis of mycolic acids and non-hydroxylated fatty acids: did not inhibit
[4]
  MIC: 3.13 µg/mL (≈ 9.77 µM)
CYP1A2
  pIC50: 5.70
CYP3A4/5
  pIC50: < 4.00
M. tuberculosis H37Rv; N9 combined with MFX
  FICI (fractional inhibitory concentration index): below 0.5
M. tuberculosis H37Rv; combination N9 + EMB
  MIC Combined: 0.78 µg/mL
M. tuberculosis H37Rv; combination N9 + INH
  MIC Combined: 0.78 µg/mL
M. tuberculosis H37Rv; combination N9 + RIF
  MIC Combined: 0.78 µg/mL and 1.56 µg/mL
[5]
  MIC: 1.56 µg/mL (≈ 4.87 µM)
